In ChEMBL document CHEMBL2424646, “Design, synthesis and biological evaluation of novel mansonone E derivatives prepared via CuAAC click chemistry as topoisomerase II inhibitors” (Eur J Med Chem, 2013):
Calls of active or inactive are those of the source. No cut-off for these calls is given here.

Tests used:
[1] = test system: HL-60; test: Cytotoxicity against human HL60 cells after 48 hrs by MTT assay; type: functional, cell-based; settings: HL-60, 48 h
[2] = target: T1, DNA topoisomerase 2-alpha (Homo sapiens, UniProt P11388); test: Inhibition of human DNA topoisomerase 2alpha-mediated relaxation of supercoiled pBR322 at 20 uM after 30 mins by agarose gel electrophoresis
[3] = test system: K562; test: Cytotoxicity against human K562 cells after 48 hrs by MTT assay; type: functional, cell-based; settings: K562, 48 h
[4] = test system: A549; test: Cytotoxicity against human A549 cells after 48 hrs by MTT assay; type: functional, cell-based; settings: A549, 48 h
[5] = target: T1, DNA topoisomerase 2-alpha; test: Inhibition of human DNA topoisomerase 2alpha using pBR322 DNA at 2 uM after 30 mins by agarose gel electrophoresis
[6] = test system: HeLa; test: Cytotoxicity against human HeLa cells after 48 hrs by MTT assay; type: functional, cell-based
[7] = target: T1, DNA topoisomerase 2-alpha; settings: 100 uM
Description: Inhibition of human topoisomerase 2alpha assessed as formation of linear form of supercoiled pBR322 DNA at 100 uM after 30 mins by agarose gel electrophoresis

[8] = target: T2, DNA topoisomerase 1 (Homo sapiens) (UniProt P11387); test: Inhibition of DNA topoisomerase 1 (unknown origin)-mediated relaxation of supercoiled pBR322 at 50 uM after 30 mins by agarose gel electrophoresis
T2 sequence (whole entry): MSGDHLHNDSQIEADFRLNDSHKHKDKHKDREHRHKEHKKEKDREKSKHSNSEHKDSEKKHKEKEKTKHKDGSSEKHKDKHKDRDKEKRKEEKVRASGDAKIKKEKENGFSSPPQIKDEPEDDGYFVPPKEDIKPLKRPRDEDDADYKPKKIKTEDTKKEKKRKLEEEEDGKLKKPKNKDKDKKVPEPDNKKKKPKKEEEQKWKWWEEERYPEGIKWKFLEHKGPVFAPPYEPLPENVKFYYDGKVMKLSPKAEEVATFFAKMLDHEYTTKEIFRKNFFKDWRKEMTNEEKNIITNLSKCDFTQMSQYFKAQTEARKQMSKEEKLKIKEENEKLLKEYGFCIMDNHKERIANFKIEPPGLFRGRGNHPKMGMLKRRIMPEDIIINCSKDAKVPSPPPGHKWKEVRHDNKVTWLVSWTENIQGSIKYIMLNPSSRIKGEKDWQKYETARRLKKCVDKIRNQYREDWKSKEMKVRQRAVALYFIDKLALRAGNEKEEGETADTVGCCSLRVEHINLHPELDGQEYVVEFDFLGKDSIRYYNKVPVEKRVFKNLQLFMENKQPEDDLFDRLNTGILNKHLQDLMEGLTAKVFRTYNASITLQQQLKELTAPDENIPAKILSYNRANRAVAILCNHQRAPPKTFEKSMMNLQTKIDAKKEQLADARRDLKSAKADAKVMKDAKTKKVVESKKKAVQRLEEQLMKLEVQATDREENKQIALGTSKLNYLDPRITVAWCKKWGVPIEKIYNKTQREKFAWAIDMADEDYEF

[9] = target: T1, DNA topoisomerase 2-alpha; test: Ratio of mansonone-E IC50 to compound IC50 for human DNA topoisomerase 2alpha
[10] = target: T1, DNA topoisomerase 2-alpha; test: Inhibition of human DNA topoisomerase 2alpha using pBR322 DNA after 30 mins by agarose gel electrophoresis
[11] = target: T1, DNA topoisomerase 2-alpha; test: Inhibition of human topoisomerase 2alpha assessed as formation of linear form of supercoiled pBR322 DNA at 50 uM after 30 mins by agarose gel electrophoresis

T1 sequence (P11388 whole entry): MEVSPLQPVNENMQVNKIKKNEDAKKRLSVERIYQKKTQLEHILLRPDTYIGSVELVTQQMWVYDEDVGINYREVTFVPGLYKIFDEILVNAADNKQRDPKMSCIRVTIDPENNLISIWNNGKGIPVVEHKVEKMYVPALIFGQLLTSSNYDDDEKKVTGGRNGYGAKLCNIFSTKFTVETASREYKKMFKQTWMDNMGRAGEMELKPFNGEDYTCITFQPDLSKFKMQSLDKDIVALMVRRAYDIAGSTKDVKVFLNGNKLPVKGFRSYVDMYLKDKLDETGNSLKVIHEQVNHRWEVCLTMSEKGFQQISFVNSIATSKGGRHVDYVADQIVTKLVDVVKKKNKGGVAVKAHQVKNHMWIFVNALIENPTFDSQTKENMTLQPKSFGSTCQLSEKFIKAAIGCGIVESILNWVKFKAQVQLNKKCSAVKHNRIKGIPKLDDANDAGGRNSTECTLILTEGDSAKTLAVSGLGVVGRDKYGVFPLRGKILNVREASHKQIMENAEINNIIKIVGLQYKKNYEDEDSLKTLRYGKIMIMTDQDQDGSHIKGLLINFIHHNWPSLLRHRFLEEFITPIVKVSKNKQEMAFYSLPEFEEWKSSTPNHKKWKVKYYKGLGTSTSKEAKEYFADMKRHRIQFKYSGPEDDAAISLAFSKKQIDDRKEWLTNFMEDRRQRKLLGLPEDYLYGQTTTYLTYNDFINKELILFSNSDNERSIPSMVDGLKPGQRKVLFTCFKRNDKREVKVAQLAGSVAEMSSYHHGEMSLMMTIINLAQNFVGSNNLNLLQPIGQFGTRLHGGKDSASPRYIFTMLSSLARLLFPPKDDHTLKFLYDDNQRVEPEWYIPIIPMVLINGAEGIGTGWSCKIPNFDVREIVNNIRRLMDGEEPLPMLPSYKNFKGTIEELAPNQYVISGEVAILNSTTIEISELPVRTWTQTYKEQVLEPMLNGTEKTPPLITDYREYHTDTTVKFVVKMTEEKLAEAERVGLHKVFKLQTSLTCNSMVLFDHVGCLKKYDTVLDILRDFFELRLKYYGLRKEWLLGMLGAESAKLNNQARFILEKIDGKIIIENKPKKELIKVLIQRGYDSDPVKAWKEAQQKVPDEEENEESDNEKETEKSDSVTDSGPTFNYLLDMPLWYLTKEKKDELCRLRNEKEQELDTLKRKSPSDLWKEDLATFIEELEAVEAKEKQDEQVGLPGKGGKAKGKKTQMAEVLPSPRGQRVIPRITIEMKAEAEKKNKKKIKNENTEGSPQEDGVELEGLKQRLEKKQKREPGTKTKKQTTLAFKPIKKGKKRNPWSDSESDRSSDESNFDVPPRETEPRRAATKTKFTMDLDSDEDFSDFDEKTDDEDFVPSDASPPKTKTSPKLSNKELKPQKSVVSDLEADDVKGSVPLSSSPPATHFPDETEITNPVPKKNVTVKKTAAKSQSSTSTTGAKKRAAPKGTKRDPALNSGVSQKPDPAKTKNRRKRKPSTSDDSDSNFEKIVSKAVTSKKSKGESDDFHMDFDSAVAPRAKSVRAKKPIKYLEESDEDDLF

inhibition [2] | inhibition [5] | inhibition [7] | inhibition [8] | Ratio IC50 [9] | IC50 [10] | inhibition [11] | SMILES | IC50 [1] | IC50 [3] | IC50 [4] | IC50 [6]
Active | Active | – | – | – | – | – | O=C1C(=O)c2cccc3c2C(=C1Br)OCC3n1cc(-c2ccc(Cl)cc2)nn1 (stereo unspecified) | 15.4 µM | 29 µM | 50 µM | 30.6 µM
Active | Active | – | – | – | – | – | O=C1C(=O)c2cccc3c2C(=C1Br)OCC3n1cc(-c2ccccc2)nn1 (stereo unspecified) | 29.3 µM | 40.1 µM | 50 µM | 42.9 µM
Active | Active | – | – | – | – | – | O=C1C(=O)c2cccc3c2C(=C1Br)OCC3n1cc(-c2ccc(F)cc2)nn1 (stereo unspecified) | 12.3 µM | 35.5 µM | 50 µM | 30.2 µM
Active | Active | – | – | – | – | – | Cc1ccc(-c2cn(C3COC4=C(Br)C(=O)C(=O)c5cccc3c54)nn2)cc1 (stereo unspecified) | 10.3 µM | 18.8 µM | 42.9 µM | 26.6 µM
Active | Active | – | – | – | – | – | CCOC(=O)c1cn(C2COC3=C(Cl)C(=O)C(=O)c4cccc2c43)nn1 (stereo unspecified) | > 100 µM | > 50 µM | > 100 µM | > 100 µM
Active | Active | – | – | – | – | – | COC(=O)c1cn(C2COC3=C(Br)C(=O)C(=O)c4cccc2c43)nn1 (stereo unspecified) | > 50 µM | > 50 µM | > 50 µM | > 50 µM
Active | Active | – | – | – | – | – | O=C1C(=O)c2cccc3c2C(=C1Cl)OCC3n1cc(-c2ccc(Cl)cc2)nn1 (stereo unspecified) | 12.2 µM | 20.6 µM | 77.7 µM | 67.4 µM
Active | Active | – | – | – | – | – | COC(=O)c1cn(C2COC3=C(Cl)C(=O)C(=O)c4cccc2c43)nn1 (stereo unspecified) | 98 µM | > 50 µM | > 100 µM | > 100 µM
Active | Active | – | – | – | – | – | CCCc1ccc(-c2cn(C3COC4=C(Cl)C(=O)C(=O)c5cccc3c54)nn2)cc1 (stereo unspecified) | 2.38 µM | 3.86 µM | 28.3 µM | 24.4 µM
Active | Active | – | – | – | – | – | O=C1C(=O)c2cccc3c2C(=C1Cl)OCC3n1cc(-c2ccc(F)cc2)nn1 (stereo unspecified) | 10.7 µM | 16.7 µM | 43.1 µM | 48.4 µM
Active | Active | – | – | – | – | – | O=C1C(=O)c2cccc3c2C(=C1Cl)OCC3n1cc(-c2ccccn2)nn1 (stereo unspecified) | 2.7 µM | 5.87 µM | 17.8 µM | 28.9 µM
Active | Active | – | – | – | – | – | COC(=O)c1nnn(C2COC3=C(Cl)C(=O)C(=O)c4cccc2c43)c1C(=O)OC (stereo unspecified) | > 100 µM | > 50 µM | > 100 µM | > 100 µM
Active | Active | – | – | – | – | – | CCOC(=O)c1cn(C2COC3=C(Br)C(=O)C(=O)c4cccc2c43)nn1 (stereo unspecified) | > 50 µM | > 50 µM | > 50 µM | > 50 µM
– | – | Active | – | – | – | – | COc1cc([C@@H]2c3cc4c(cc3[C@@H](O[C@@H]3O[C@@H]5CO[C@@H](C)O[C@H]5[C@H](O)[C@H]3O)[C@H]3COC(=O)[C@H]23)OCO4)cc(OC)c1O [ETOPOSIDE] | 0.33 µM | 8.45 µM | – | 63.7 µM
Active | Active | – | inactive | – | – | – | CCc1ccc(-c2cn(C3COC4=C(Cl)C(=O)C(=O)c5cccc3c54)nn2)cc1 (stereo unspecified) | 2.9 µM | 10.6 µM | 29.5 µM | 29.1 µM
Active | Active | – | – | – | – | – | CCCCc1ccc(-c2cn(C3COC4=C(Br)C(=O)C(=O)c5cccc3c54)nn2)cc1 (stereo unspecified) | 2.55 µM | 3.87 µM | 18.3 µM | 12.5 µM
Active | Active | – | – | 20 | 0.92 µM | – | CCCCCc1ccc(-c2cn(C3COC4=C(Br)C(=O)C(=O)c5cccc3c54)nn2)cc1 (stereo unspecified) | 2.34 µM | 4.12 µM | 15 µM | 7.72 µM
Active | Active | – | – | – | – | – | CCc1ccc(-c2cn(C3COC4=C(Br)C(=O)C(=O)c5cccc3c54)nn2)cc1 (stereo unspecified) | 4.94 µM | 14.4 µM | 22.9 µM | 16.7 µM
Active | Active | – | – | – | – | inactive | CCCc1ccc(-c2cn(C3COC4=C(Br)C(=O)C(=O)c5cccc3c54)nn2)cc1 (stereo unspecified) | 1.49 µM | 2.82 µM | 17.3 µM | 11.8 µM
– | – | – | – | – | 18.6 µM | – | CC1=C2OCC(C)c3ccc(C)c(c32)C(=O)C1=O (stereo unspecified) [MANSONONE E] | 10.6 µM | 12.2 µM | 17.5 µM | 15.7 µM
Active | Active | – | – | – | – | – | O=C1C(=O)c2cccc3c2C(=C1Br)OCC3n1cc(C2CC2)nn1 (stereo unspecified) | 22.7 µM | 40.2 µM | > 50 µM | 43.1 µM
Active | Active | – | – | – | – | – | O=C1C(=O)c2cccc3c2C(=C1Cl)OCC3n1cc(C2CC2)nn1 (stereo unspecified) | 50 µM | 50 µM | > 100 µM | > 100 µM
Active | Active | – | – | – | – | – | COc1ccc(-c2cn(C3COC4=C(Cl)C(=O)C(=O)c5cccc3c54)nn2)cc1 (stereo unspecified) | 7.08 µM | 29.8 µM | 51.1 µM | 40.9 µM
Active | Active | – | – | – | – | – | COc1ccc(-c2cn(C3COC4=C(Br)C(=O)C(=O)c5cccc3c54)nn2)cc1 (stereo unspecified) | 10.3 µM | 12.7 µM | 45.8 µM | 26.7 µM
Active | Active | – | – | – | – | – | Cc1ccc(-c2cn(C3COC4=C(Cl)C(=O)C(=O)c5cccc3c54)nn2)cc1 (stereo unspecified) | 19.8 µM | 18.3 µM | 55.5 µM | 32.8 µM
Active | Active | – | – | – | – | – | COC(=O)c1nnn(C2COC3=C(Br)C(=O)C(=O)c4cccc2c43)c1C(=O)OC (stereo unspecified) | > 50 µM | > 50 µM | > 50 µM | > 50 µM
Active | Active | – | – | – | – | – | O=C1C(=O)c2cccc3c2C(=C1Cl)OCC3n1cc(-c2ccccc2)nn1 (stereo unspecified) | 18.4 µM | 21.4 µM | 84.5 µM | 70.2 µM
Active | Active | – | – | – | – | – | CCCCc1ccc(-c2cn(C3COC4=C(Cl)C(=O)C(=O)c5cccc3c54)nn2)cc1 (stereo unspecified) | 2.55 µM | 5.67 µM | 11.4 µM | 18 µM
Active | Active | – | – | – | – | – | CCCCCc1ccc(-c2cn(C3COC4=C(Cl)C(=O)C(=O)c5cccc3c54)nn2)cc1 (stereo unspecified) | 3.54 µM | 3.51 µM | 12.8 µM | 16.9 µM
Active | Active | – | – | – | – | – | O=C1C(=O)c2cccc3c2C(=C1Br)OCC3n1cc(-c2ccccn2)nn1 (stereo unspecified) | 2.11 µM | 3.23 µM | 15.3 µM | 16.2 µM
